Assay results from patent publication US20240327800A1, “HIGH THROUGHPUT LOCALIZED PASSIVE DIFFUSION DEVICE FOR PATTERNING ORGANOIDS” (University of Massachusetts, priority 2023, published 2024).

Tested on: hESCs (H9) derived forebrain organoid
Assay: Dorsal-ventral patterning of forebrain organoids with a gradient of Shh agonist (immunostaining)
Type: cell-based, human
Procedure: The cells were sub-passaged every 3 to 4 days by 80% to 90% confluence. Before cell culturing, the device 500 was incubated in 2% pluronic for one hour, rinsed with 1×DPBS three times, and dried out before adding the gelatin-transglutaminase mixture to layer 3. Before cell seeding, the medium and medium chambers were incubated at room temperature with E8 basal for up to 24 hrs. The gelatin in the microwells was aspirated after being soaked in the E8 basal before cell seeding.
Cells were seeded using E8 medium supplemented with 10 uM Rock inhibitor (Y27). 100, 000 cells suspended in 5 μl medium were then pipetted into each microwell. Then, the device 500 was centrifuged at 200 g for 2 mins. Then, another 1 ml and 500 μl of medium were added into the medium chamber and the morphogen chamber, respectively. The device 500 was placed into a 37 C.° incubator overnight to generate a cell aggregate. […] It was observed that the EBs were immobilized by growing them around the sutures. To grow EBs around the sutures, a high density of hESCs was seeded directly into the microwell. The size of the EB spheroid at day 8, around 500 μm, was consistent with the diameter of the EB at day 1. The size of EB spheroid could be grown by changing the E8 medium and adding 1% PS daily during continued culturing.
Essential 6 (E6) medium supplemented with 1% PS, 5 μM dorsomorphin (DM), and 10 μM SB-431542 for both medium and morphogen chambers for six days for dual SMAD inhibition. […] To generate a D-V patterned organoid, 5 μM of purmorphamine and 5 μM of IWP-2 were supplemented to the basal medium in the morphogen chamber for five days between day 14 to day 30. To generate cortical organoids, the basal medium was used for both the medium and the morphogen chamber. To generate subpallial organoids, purmorphamine and IWP-2 supplement medium were used for both chambers. The medium was changed daily until day 30.
The organoids were then rinsed with 1×DPBS two times for 10 mins, then fixed by incubating in 4% paraformaldehyde (Electron Microscopy Sciences) at 4 C.° overnight. […]

c1ccc2c(Oc3nc(Nc4ccc(N5CCOCC5)cc4)c4ncn(C5CCCCC5)c4n3)cccc2c1 [purmorphamine]
D-V patterning (Uniform Pur control: purmorphamine in both medium chamber and morphogen chamber (no gradient)): No D-V patterning was established | NKX2.1 marker expression (ventral fate differentiation) (gradient group, 5 μM purmorphamine in morphogen chamber (with 5 μM IWP-2), five continuous days between day 14 and day 30, bottom half of organoid): higher expression level of NKX2.1 makers was established at the bottom half of the organoid | PAX6 expression (dorsal fate differentiation) (gradient group, 5 μM purmorphamine in morphogen chamber, five continuous days between day 14 and day 30, top half of organoid): dominant expression of PAX6 was observed
